Read-outs that look alike come from different tables or passages of the source. Blank lines part the entries; values can stand above or below the compound they belong to.
Target: Ashbya gossypii ICL (isocitrate lyase) (Eremothecium gossypii, UniProt O94198)
Experiment: Colorimetric test of purified isocitrate lyase (ICL) activity with inhibitors
Format: biochemical
Conditions: for inhibition at 1000 µM: read-out: inhibition of ICL activity
From the text: In order to identify substances exerting an inhibitory effect on ICL, the Ashbya gossypii ICL was first of all purified. The enzyme was isolated and purified after the fungal mycelium had been grown on vegetable oil. […] Approximately 78% of this activity is recovered in dissolved form in the supernatant after centrifuging at 40,000 g. Subsequent fractionation by means of ammonium sulfate precipitation results in a three-fold enrichment of the enzyme. After gel filtration through a Sephacryl S-300 column, the ICL is bound to the cation exchange material Mono S-Sepharose and eluted with NaCl. The resulting preparation is homogeneous by SDS polyacrylamide gel electrophoresis and has a specific activity of 18.4 U/mg.
The purified enzyme can be used to measure the effects of substances on its activity in a […] test (Dixon, H. and Kornberg, H. L. (1959), Biochem. J. 72, 3: Assay methods for key enzymes of the glyoxylate cycle). The effects of the tested substances on the enzyme are summarized and depicted in Table 2 and FIG. 1, respectively. Substances to be investigated included those which, as metabolites in the fungal cell, could have an inhibitory effect on the enzyme.

[1] = purified enzyme, concentration of 10 mM

Ashbya gossypii ICL (isocitrate lyase), sequence (O94198 whole entry): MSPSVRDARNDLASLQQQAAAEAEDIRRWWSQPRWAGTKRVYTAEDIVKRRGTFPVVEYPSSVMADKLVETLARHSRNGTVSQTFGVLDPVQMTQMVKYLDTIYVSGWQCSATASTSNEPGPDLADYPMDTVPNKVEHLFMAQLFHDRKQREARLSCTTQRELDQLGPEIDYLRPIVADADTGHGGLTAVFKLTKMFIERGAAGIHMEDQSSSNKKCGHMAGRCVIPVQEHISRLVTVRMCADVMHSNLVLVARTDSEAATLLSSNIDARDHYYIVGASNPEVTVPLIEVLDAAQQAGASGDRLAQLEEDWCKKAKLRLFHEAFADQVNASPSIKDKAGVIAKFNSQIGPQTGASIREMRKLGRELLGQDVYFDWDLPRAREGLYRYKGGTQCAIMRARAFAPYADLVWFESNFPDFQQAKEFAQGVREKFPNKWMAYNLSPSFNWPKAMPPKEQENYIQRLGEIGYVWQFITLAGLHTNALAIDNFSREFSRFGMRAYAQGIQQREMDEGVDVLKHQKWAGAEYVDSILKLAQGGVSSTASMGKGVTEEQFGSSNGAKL

SMILES: O=C(O)[C@H](O)[C@@H](O)[C@H](O)[C@H](O)COP(=O)(O)O [6-P-gluconate]
inhibition of ICL activity [1]: greater than 50%

SMILES: C=C(CC(=O)O)C(=O)O [itaconate]
inhibition at 1000 µM: 78%

inhibition at 1000 µM (purified enzyme, concentration of 1 mM): 95%
SMILES: O=C(O)C(=O)O [oxalate]

inhibition at 10000 µM [1]: > 50%
SMILES: C=C(OP(=O)(O)O)C(=O)O [phosphoenolpyruvate]

Source: patent US5976844A, “Riboflavin-production process by means of micro-organisms with modified isocitratlyase activity” (BASF Aktiengesellschaft, priority 1995, dated 1999)
